Data on three molecules can be found in US12472269B2, “Liver-specific inducible promoters and methods of use thereof” (ASKBIO INC., priority 2019, dated 2025).

One data set relates to Huh7 cells. Description: EPO expression (ELISA of medium) from PB1-MinTK in Huh7 cells with CAR-containing plasmid, induction by CITCO. Type of data set: cell-based, human. From the text:
• Huh7 cells which are a human liver cell line • DPBS: without CaCl2, without MgCl2 (Gibco, 14190-094) • DMEM (Sigma, D6546) • FBS (Sigma, F9665) • Pen-Strep (Sigma, P4333) • Promega Fugene-HD (E2311) • TCPOBOP (Sigma, T2320) • CITCO (Cayman Chemicals Company, 16027) • pcDNA6 plasmid which contains the β-galactosidase gene used as internal control for transfection efficiency (Thermofisher, V22020) • mouse CAR expression plasmid from Jouan et al, 2016 (BioCat GmbH, EX-Z4288-M51-10-GC). This was used as Huh7 is CAR deficient. • β-galactosidase substrate solution (Thermofisher, 75707/75710) • Pierce BCA kit (23225) • LARII (Dual Luciferase Reporter 1000 assay system, Promega, E1980) • EPO ELISA kit (Abcam, ab119522) Method: Day 1 • Cells were seeded onto a 48 well plate at a density of 25,000 cells/300 μl Day 2 • On the day of transfection, DNA to be transfected (CAR plasmid/PB1-MinTK operably linked with luciferase or EPO/pcDNA6 plasmid for internal control) was diluted to a 100 ng/μl stock solution. Per 48 Well Transfection: • 45 ng of DNA (15 ng of each plasmid, pcDNA6, CAR and test plasmid) was mixed with 4.1 μl of Optimem medium. • 0.5 μl of Fusion HD was mixed with 4 μl of Optimem medium. • These 2 solutions were mixed and incubated at room temperature for 15 minutes. • The final solution was then added to the well drop wise. • 3 hrs after transfection, the inducer TCPOBOP was added to the appropriate wells at the indicated concentration. Day 3 • 24 hrs after induction the media was removed from the cells. • The cells were washed once in 300 μl of DPBS • Cells were lysed using 100 μl of passive lysis buffer and incubation with rocking for 15 minutes • The cell debris was pelleted by centrifugation of the plate at max speed in a benchtop centrifuge for 1 min • For luciferase, 10 μl sample was transferred into white 96-well plate and luminescence measured by injection of 50 μl of LARII substrate. • β-galactosidase activity was measured as per manufacturer's instructions (Mammalian β-Galactosidase Assay Kit, 75707/75710, Thermo Scientific) using 25 μl of lysate. 25 μl of lysate was transferred into a microplate well and mixed with 25 μl of β-galactosidase Assay Reagent, equilibrated to room temperature. The mixture was incubated at 37° C. for 30 min and absorbance measured at 405 nm. • Protein concentration was measured as per manufacturer's instructions (Pierce™ BCA Protein Assay Kit, 23225/23227, Thermo Scientific) using 25 μl of lysate. 25 μl of lysate was transferred into a microplate well and mixed with 200 μl of working solution. The mixture was incubated at 37° C. for 30 min, cooled to room temperature and then absorbance measured around 562 nm. The protein concentration was calculated with respect to protein standard curve prepared from assaying standards with known protein concentration.
Transfections with PB1-MinTk-EPO were performed as described above with the exception that EPO is secreted into the medium. Therefore, medium was collected, and EPO concentration measured as per manufacturer's instructions (ab119522 Erythropoietin (EPO) Human ELISA Kit, Abcam) using an ELISA assay. 50 μl of medium was transferred to a pre-washed microplate wells and mixed with 50 μl of 1× Biotin Conjugated Antibody. The mixture was incubated at room temperature for 1 hour. The wells were washed, 100 μl of Streptavadin-HRP was added and the plate was incubated at room temperature for 15 minutes. The wells were washed and then 100 μl of TMB Substrate Solution. The mixture was incubated at room temperature for 10 minutes. The enzyme reaction was stopped by addition of 100 μl of Stop Solution and absorbance was read at 450 nm. The EPO concentration was calculated with respect to EPO standard curve prepared from assaying standards with known EPO concentration.
The PB1-MinkTK promoter was then used to drive expression of the protein EPO, which is of therapeutic interest. […]
(In general: An ELISA detects its analyte on a solid surface through an enzyme-linked reagent.)

Another data set concerns AXOL ARE-hepatocytes. Description: Luciferase expression from PBREM promoters in AXOL ARE-hepatocytes, induction by CITCO. It is filed as cell-based, human. Conditions: 1 μM CITCO, readout 24 hrs after induction. From the text:
Axol Assay-Ready Expanded (ARE) Hepatocytes are primary human hepatocytes that have been expanded in vitro. Large batch sizes (up to 2000 vials) are available, ensuring a reliable, ready-to-use and consistent source of primary hepatocytes. ARE Hepatocytes express CYP enzymes, are metabolically functional, are polarized and can be infected by the Hepatitis C virus. AXOL ARE-hepatocytes express CAR negating the need to transfect with a CAR-expressing plasmid.
• AXOL assay-ready expanded (ARE) hepatocytes (Axol, ax3701) • ARE hepatocyte thawing medium (Axol, ax3705) • ARE maintenance medium (Axol, ax3710) • Virimer red transfection reagent (Lipocalyx, VR04-02-15) • CITCO, lucifierase, β-galactosidase and BCA kits as described above
ARE hepatocytes were cultured and transfected as described in the manufacturer's manual. 200,000 cells were seeded in 2 ml culture medium in collagen-coated 6 well plate. The cells were incubated for 4 h at 37° C. and 5% CO2 for sufficient adhesion. 200 μl of transfection mixture containing the DNA to be transfected (PB1-MinTK/PB1-CMV/PB1-SV40 operably linked with luciferase and β-galactosidase containing promoter) was added and the cells were incubated on an orbital shaker at 100 rpm for three hours at 37° C. and 5% CO2. 3 hrs after transfection CITCO was added to the appropriate wells. Cells were incubated under static conditions at 37° C. and 5% CO2 overnight and in the morning the medium was replaced with fresh ARE Hepatocyte Maintenance Medium. Readout was 24 hrs after induction. […]

The next data set has as its system CD1 male mice. Briefly: In vivo bioluminescence imaging of mice injected with AAV9 constructs, induction by phenobarbital. Conditions: AAV9 via tail vein. The protocol: • Seed HEK 293-AAV cells in 15 cm plates. To be 70-80% confluent on the day of transfection • Final volume on each plate: 15 ml Day 2: Prepare Transfection Mix: • DNA mix/plate: pDG9 (Packaging plasmid for AAV9): 10.5 μg/pHGTI (Ad. Helper plasmid): 31.5 μg/Vector plasmid: 10.5 μg/Prepare in serum free DMEM/Optimem • Transfer mix/plate: PEI: 125 μl/Prepare in serum free DMEM/Optimem • Add DNA mix into transfection mix. Mix and leave at room temperature for 15-20 mins. • Add 3 ml of transfection mix to each plate drop-wise and gently distribute. Incubate for 24 h. Day 3: • Replace media with 15 ml DMEM supplemented with P/S and 2% FCS. Leave for 48 h. Day 5: • Collect supernatant and pool in 50 ml tubes, 25 ml each tube. Store at −20° C. • Collect cells: Add 5 ml of PBS to each plate→scrape and collect in 50 ml tubes. • To wash plates, add another 1 ml of PBS and collect. • Spin at 1500 rpm for 5 mins. • Remove supernatant and resuspend pelleted cells in 1 ml/plate TD lysis buffer→pool • Store at −80′C. Endonuclease Treatment Cells: • Freeze and thaw pellets 5 times→˜20 mins at 37° C. then ˜20 mins in dry ice (or −80° C.). • Add 25 μl/ml cells of 20% Deoxycholate (or 50 μl/ml of 10% Deoxycholate). • Add 8 μl/ml cells of benzonase. • Incubate at 37° C. for 30 mins. • Spin at 4 Krpm for 30 mins. • Filter supernatant using […] filters. • Store at 4° C. for up to 24 h. Supernatant: • Add 2.5 μl/25 ml supernatant of benzonase. • Add 50 μl/25 ml supernatant of MgSO4. • Incubate at 37° C. for 30 mins. • Spin at 4 Krpm for 30 mins. • Filter supernatant using […] filters. • Store at 4′C for up to 24 h. Hplc Purification • Place both lines in 20% ETOH→template→system wash • Put line A in PBS and line B in Glycine→template→system wash • Place the column in the machine→manual run→flowrate: 5 ml/min→Run for 25 ml or until the UV line is flat. • Prepare FACS tubes (10 for cells and more for supernatant): add 30 μl/tube Tris→put in the machine to collect vectors. • Place the waste lines in a separate tube to be able to run them again through the column. • Run samples (flowrate low, depending on how fast the system and how concentrated the sample is; for cells it is slower, for supernatant it is higher). • After running the waste through the column, wash with PBS→flowrate: 5 ml/min until the UV line is flat. • Set→fraction size: 1 ml; Flowrate: 1 ml/min; concentration % B: 100%→run. • Start collecting: Look for the peak. The peak indicates vector purification. Mark the tubes containing these vectors. • Save programme before exiting. • Wash with PBS→75 ml, 5 ml/min • Wash with Na3PO4 (to store the column in)→75 ml, 5 ml/min • Remove column and store at 4° C. • Wash the machine with PBS→template→system wash • Wash the machine with 20% ETOH→template→system wash • Put both lines in 20% ETOH and shut down • Add 2 L of PBS into a big bucket and put the Dialysis cassette (Side-A-Lyzer; Thermo scientific) to prime. • Collect the vectors from the marked FACS tubes using a syringe and needle and add into the dialysis cassette→remove excess air from the membrane, carefully place the rubber on top of the cassette and let it float in the PBS-containing bucket→leave over night at room temperature on a slow rotating rotor. Next Day: • Prime membrane by adding 5 ml PBS onto a centrifugal filter (Amico Ultra 15; MERCK)→spin for 5 mins at 4 Krpm • Remove excess PBS from inside the membrane. • Take vectors out from the cassette and load onto the membrane→spin for 5 mins at 4 Krpm • Wash the membrane with the vectors inside few times, then collect into 2 ml centrifuge tube filter 0.22 μM (Spin-X; COSTAR) • Spin for 3 mins at 13 Krpm. • Remove filter and aliquot: 1×100 μl (for injection), the rest in 10-2 μl aliquots. • Store in −80° C. • Virus quantification was performed using qRT-PCR with primers and probes for the luciferase gene. Mice Experiment […]

Regarding `Clc1ccc(-c2nc3sccn3c2C=NOCc2ccc(Cl)c(Cl)c2)cc1` [CITCO, 6-(4Chlorophenyl)imidazo[2,1-b][1,3]thiazole-5-carbaldehyde-O-(3,4-dichlorobenzyl)oxime, reference compound], in the data set on Huh7 cells (22% vs 40% of CMV-IE with PB1-MinTK), the “strength as inducer of CAR activity” value is “weaker inducer of CAR activity than TCPOBOP”.
Turning to “CMV-MP: CMV minimal promoter driving EPO in pGL4.10, SEQ ID NO: 54 [reference compound]”, the “change of EPO expression on addition of CITCO” value in the data set with Huh7 cells (0.5 μM, 1 μM, 2 μM and 3 μM CITCO) is “does not change the EPO expression”.

B1: CMV-IE: strong viral CMV-IE comparative promoter, SEQ ID NO: 52 (nucleic acid)
DNA: GACATTGATTATTGACTAGTTATTAATAGTAATCAATTACGGGGTCATTAGTTCATAGCCCATATATGGAGTTCCGCGTTACATAACTTACGGTAAATGGCCCGCCTGGCTGACCGCCCAACGACCCCCGCCCATTGACGTCAATAATGACGTATGTTCCCATAGTAACGCCAATAGGGACTTTCCATTGACGTCAATGGGTGGAGTATTTACGGTAAACTGCCCACTTGGCAGTACATCAAGTGTATCATATGCCAAGTACGCCCCCTATTGACGTCAATGACGGTAAATGGCCCGCCTGGCATTATGCCCAGTACATGACCTTATGGGACTTTCCTACTTGGCAGTACATCTACGTATTAGTCATCGCTATTACCATGGTGATGCGGTTTTGGCAGTACATCAATGGGCGTGGATAGCGGTTTGACTCACGGGGATTTCCAAGTCTCCACCCCATTGACGTCAATGGGAGTTTGTTTTGGCACCAAAATCAACGGGACTTTCCAAAATGTCGTAACAACTCCGCCCCATTGACGCAAATGGGCGGTAGGCGTGTACGGTGGGAGGTCTATATAAGCAGAGCT
modifications: CMV-IE comparative promoter
As for B1, the “induction of luciferase expression” value in the data set with AXOL ARE-hepatocytes is reported as ~2 fold. The “tissue distribution of luciferase expression” value in the data set on CD1 male mice is reported as “expressing in almost all tissues of the mouse”.
